Data on five compounds can be found in the NIST ThermoML archive (doi:10.1016/j.fluid.2011.11.020).

± gives the expanded uncertainty stated by the source.

The conditions of the series: Liquid, Ebulliometric method (Recirculating still).

On to `C=C(C)C(C)C` [2,3-dimethyl-1-butene], for which the Normal boiling temperature came out at 55.73 ± 0.2 °C.

Take `CC(C)=C(C)C` [2,3-dimethyl-2-butene]: the Normal boiling temperature stood at 73.00 ± 0.21 °C.

Take `CCC(C)C` [2-methylbutane]: the Normal boiling temperature was determined as 28.00 ± 0.2 °C.

What is called vapor or sublimation pressure is the pressure of vapour in equilibrium with the condensed phase. For the compound `CCCCCCC` [heptane], the Normal boiling temperature was found to be 98.49 ± 0.2 °C. In addition, the “vapor or sublimation pressure” value (370.27 K) worked out at 97.43 ± 0.14 kPa. Under “370.74 K”, the “vapor or sublimation pressure” value is 98.52 ± 0.15 kPa. Also, the “vapor or sublimation pressure” value (370.93 K) turned out to be 99.39 ± 0.17 kPa. Moreover, the “vapor or sublimation pressure” value (371.13 K) was determined as 99.78 ± 0.16 kPa. In addition, the “vapor or sublimation pressure” value (371.52 K) is given as 101.07 ± 0.17 kPa. Moreover, the “vapor or sublimation pressure” value (372.25 K) was 103.43 ± 0.11 kPa. Where the note is “372.36 K”, the “vapor or sublimation pressure” value was determined as 103.56 ± 0.17 kPa. For the setting “372.56 K”, the “vapor or sublimation pressure” value is recorded as 104.41 ± 0.15 kPa. For the setting “372.76 K”, the “vapor or sublimation pressure” value is recorded as 104.67 ± 0.17 kPa. The “vapor or sublimation pressure” value (372.97 K) is reported as 105.83 ± 0.19 kPa. Further, the “vapor or sublimation pressure” value (373.17 K) was 106.29 ± 0.14 kPa. Further, the “vapor or sublimation pressure” value (373.48 K) is listed as 107.02 ± 0.14 kPa.

For `c1ccsc1` [thiophene], the Normal boiling temperature was determined as 84.27 ± 0.2 °C.
